Assay results from article PMC8297402, “Trifluoromethyl-substituted 3,5-bis(arylidene)-4-piperidones as potential anti-hepatoma and anti-inflammation agents by inhibiting NF-кB activation” (Journal of Enzyme Inhibition and Medicinal Chemistry, 2021).

What was measured:
IL-6 = experiment: ELISA of IL-6 release in LPS-stimulated RAW264.7 cells; type: cell-based, mouse; settings: Mus musculus, RAW264.7, ELISA, read-out: Inhibition rate IL-6; for inhibition at 5 µM: RAW264.7, BAPs (5 μM) + LPS (1 μg/mL)
Experimental: (§1) We tested by inhibiting the secretion of TNF-α and IL-6 to better evaluated the anti-inflammatory effects of BAPs. […] Under the stimulation of LPS (1.0 μg/mL) with RAW264.7 cells, the release of TNF-α and IL-6 was detected. Besides, after treated with BAPs (5.0 μM) and LPS (1.0 μg/mL), the release of TNF-α and IL-6 was measured with an ELISA kit (eBioScience, San Diego, California), respectively. In general terms, pyrrolidine dithiocarbamate (PDTC, 30 μM) or BAP (5.0 μM) was used to pretreat cells for 2 h, respectively. Then, LPS (1.0 μg/mL) was added and cells were incubated for another 22 h. Finally, the culture media were centrifuged at 1000 rpm for 10 min, and the expression levels of TNF-α and IL-6 were determined by ELISA.

[1] = Modified MTT cytotoxicity assay, normal heptical cell line LO2; type: cell-based, human; settings: human, LO2 cells (normal hepatic cell line), 24 h incubation
Experimental: (§2) The HepG2, SMMC-7721, and LO2 cell lines were maintained at 37 °C, 5% humidified CO2, and 95% atmosphere. Dulbecco's Modified Eagle (DMEM) medium containing 10% foetal bovine serum (FBS) was used for culturing the HepG2 cell line; meanwhile, Roswell Park Memorial Institute (RPMI) 1640 medium containing 10% FBS was used for culturing other cell lines (SMMC-7721, LO2). The HepG2, SMMC-7721 and LO2 cells were seeded in a 96-well plate in 200 μL of medium per well at a density of approximately 8 × 10^3 cells/well and cultured for 24 h, followed by incubation in an incubator of indicated compounds with successive concentrations (10, 5, 2.5, 1.25, 0.625, 0.3125 μg/mL) for 24 h. In the control group, cells were only cultured with culture media. After the media were removed, 20 μL of MTT (5 mg/mL) was added, then cells were incubated for 4 h at 37 °C. […] GraphPad Prism 5 software was used to calculate their IC50 values. Every IC50 value was the average of three replicates. Doxorubicin (DOX) and curcumin were used as positive controls.

TNF-α = experiment: ELISA of TNF-α release in LPS-stimulated RAW264.7 cells; type: cell-based, mouse; settings: Mus musculus, RAW264.7, ELISA, read-out: Inhibition rate TNF-α; for inhibition at 5 µM: RAW264.7, BAPs (5 μM) + LPS (1 μg/mL)
Experimental: as §1

A2780 = experiment: Modified MTT cytotoxicity assay, A2780; settings: for IC50: Homo sapiens, A2780, read-out: Cytotoxicity IC50 A2780, MTT, ovarian cancer cell line; for SI (selectivity index) A2780: quotient of IC50 for normal (HHL-5) and malignant (A2780) cells
Experimental: (§3) To further verify the anti-tumour activity, one human non-small cell lung cancer cell line (A549), one human ovarian cancer cell line (A2780), and one human normal heptical cell line (HHL-5) were screened by BAPs (4–30) using a modified MTT assay (Supporting Information). DOX and curcumin were selected as positive controls.
(§4) The optical density (OD) value of each well was measured on a
(§5) multi-well plate reader (TECAN, Mӓnnedorf, Switzerland ) at 570 nm.
(§6) Every IC 50 value was the average of three replicates.
(§7) Doxorubicin (DOX) and Curcumin were used as positive controls.

HepG2 = experiment: Modified MTT cytotoxicity assay, HepG2; type: cell-based, Human; settings: for IC50: Homo sapiens, HepG2, 24 h, MTT, 24 h incubation, three replicates, read-out: Cytotoxicity IC50 HepG2; for SI (selectivity index) HepG2: quotient of IC50 for normal (LO2) and malignant (HepG2) cells
Experimental: as §2

SMMC-7721 = experiment: Modified MTT cytotoxicity assay, SMMC-7721; type: cell-based, Human; settings: for IC50: Homo sapiens, SMMC-7721, 24 h, MTT, 24 h incubation, three replicates; for SI (selectivity index) SMMC-7721: quotient of IC50 for normal (LO2) and malignant (SMMC-7721) cells
Experimental: as §2

[2] = Modified MTT cytotoxicity assay, normal heptical cell line HHL-5; settings: human, HHL-5 cells (normal hepatic cell line)
Experimental: as §3, §4, §5, §6, §7

A549 = experiment: Modified MTT cytotoxicity assay, A549; settings: for IC50: Homo sapiens, A549, read-out: Cytotoxicity IC50 A549, MTT, non-small cell lung cancer cell line; for SI (selectivity index) A549: quotient of IC50 for normal (HHL-5) and malignant (A549) cells
Experimental: as §3, §4, §5, §6, §7

RAW264.7 cell = experiment: MTT toxicity pre-experiment on RAW264.7 macrophagocyte; type: cell-based, mouse; settings: Mus musculus, RAW264.7, BAPs 5 μM, read-out: Survival rate RAW264.7 cell
Experimental: Lipopolysaccharide (LPS) is a key constituent of Gram-negative bacterial endotoxin, which is used to induce an inflammatory response in corresponding inflammatory cells. TNF-α and IL-6 are two kinds of representative pro-inflammatory factors, which produced by LPS-stimulated RAW264.7 macrophage. In our pre-experiments, the toxicity against RAW264.7 macrophagocyte for all title compounds was tested by the MTT assay, and the results were listed in Table 2. The survival rates were above 80% for all BAPs (4-30) at the concentration of 5.0 μM.

[3] = RAW264.7, PDTC 30 μM + LPS (1 μg/mL)

Row | SMILES | inhibition at 5 µM (IL-6) [%] | IC50 at 24 h [1] [µM] | inhibition at 5 µM (TNF-α) [%] | IC50 (A2780) [µM] | IC50 (HepG2) [µM] | IC50 (SMMC-7721) [µM] | IC50 [2] [µM] | IC50 (A549) [µM] | viability at 5 µM (RAW264.7 cell) [%] | SI (selectivity index) A2780 (A2780) | SI (selectivity index) HepG2 (HepG2) | SI (selectivity index) SMMC-7721 (SMMC-7721) | SI (selectivity index) A549 (A549) | inhibition at 30 µM (IL-6; [3]) [%] | inhibition at 30 µM (TNF-α; [3]) [%]
1 | O=C1/C(=C/c2ccccc2C(F)(F)F)CN(S(=O)(=O)c2ccc(Cl)cc2)C/C1=C\c1ccccc1C(F)(F)F [BAP 9] | 38.2 ± 2.5 | 30.9 ± 0.3 | 47.1 ± 6.4 | 0.62 ± 0.07 | 11 ± 0.3 | 10.4 ± 0.3 | 9.3 ± 0.1 | 1.86 ± 0.61 | 92.8 ± 4.2 | – | – | – | – | – | –
2 | N#Cc1ccc(S(=O)(=O)N2C/C(=C\c3ccccc3C(F)(F)F)C(=O)/C(=C/c3ccccc3C(F)(F)F)C2)cc1 [BAP 11] | 59.1 ± 5.2 | 13 ± 0.1 | 58.9 ± 3.2 | 32.3 ± 7.69 | 9 ± 0.2 | 12 ± 0.2 | 15.5 ± 0.3 | 64.2 ± 10.2 | 84.2 ± 2 | 0.5 | 1.4 | 1.1 | 0.2 | – | –
3 | N#Cc1ccc(S(=O)(=O)N2C/C(=C\c3cccc(C(F)(F)F)c3)C(=O)/C(=C/c3cccc(C(F)(F)F)c3)C2)cc1 [BAP 20] | 77.7 ± 1.5 | 17.4 ± 0.1 | 75.2 ± 2.7 | 0.15 ± 0.02 | 0.9 ± 0.1 | 4.3 ± 0.2 | 2.4 ± 0.4 | 0.17 ± 0.002 | 83.7 ± 1.3 | 16.0 | 19.3 | 4.0 | 14.1 | – | –
4 | COc1cc(/C=C/C(=O)CC(=O)/C=C/c2ccc(O)c(OC)c2)ccc1O [Curcumin, reference compound] | – | 29.1 ± 2.1 | – | 44 ± 9.82 | ~15.3 | ~19.5 | 24.2 ± 0.5 | 32 ± 3.55 | – | 0.5 | 1.9 | 1.5 | 0.8 | – | –
5 | O=C1/C(=C/c2ccc(C(F)(F)F)cc2)CN(S(=O)(=O)c2ccc(Br)cc2)C/C1=C\c1ccc(C(F)(F)F)cc1 [BAP 28] | > 70 | 14.2 ± 0.3 | > 70 | 0.18 ± 0.04 | 1.7 ± 0.2 | 1.9 ± 0.2 | 20.7 ± 0.5 | 0.2 ± 0.02 | 84 ± 3.6 | 115.0 | 8.4 | 7.5 | 103.5 | – | –
6 | O=C1/C(=C/c2ccc(C(F)(F)F)cc2)CN(S(=O)(=O)c2ccccc2)C/C1=C\c1ccc(C(F)(F)F)cc1 [BAP 22] | 68.3 ± 1.3 | 18.2 ± 0.2 | 65.2 ± 1.3 | 0.17 ± 0.06 | ~1.8 | ~8.5 | 7.9 ± 0.1 | 0.18 ± 0.02 | 89.4 ± 7.8 | – | – | – | – | – | –
7 | Cc1ccc(S(=O)(=O)N2C/C(=C\c3ccccc3C(F)(F)F)C(=O)/C(=C/c3ccccc3C(F)(F)F)C2)cc1 [BAP 5] | 49.6 ± 1.1 | 36.2 ± 2.3 | 46.2 ± 1 | 4.85 ± 0.47 | 17.5 ± 0.1 | 19.7 ± 0.1 | 24.9 ± 0.1 | 14 ± 1.99 | 93.3 ± 1.7 | – | – | – | – | – | –
8 | S=C(S)N1CCCC1 [PDTC, pyrrolidine dithiocarbamate, reference compound] | – | – | – | – | – | – | – | – | – | – | – | – | – | ~59.1 | ~68.2
9 | O=C1/C(=C/c2cccc(C(F)(F)F)c2)CN(S(=O)(=O)c2ccc(F)cc2)C/C1=C\c1cccc(C(F)(F)F)c1 [BAP 17] | 67.6 ± 2.2 | 19.5 ± 0.1 | 65.6 ± 1.2 | 0.14 ± 0.01 | 3.4 ± 0.2 | 4.8 ± 0.3 | 3.5 ± 0.5 | 0.28 ± 0.01 | 85.1 ± 2 | – | – | – | – | – | –
10 | Cc1ccc(S(=O)(=O)N2C/C(=C\c3cccc(C(F)(F)F)c3)C(=O)/C(=C/c3cccc(C(F)(F)F)c3)C2)cc1 [BAP 14] | 66.3 ± 2 | 15.9 ± 0.1 | 60.2 ± 1.2 | 0.14 ± 0.03 | 11.1 ± 0.2 | 5.6 ± 0.1 | 9.4 ± 0.2 | 0.23 ± 0.04 | 89.2 ± 1.8 | – | – | – | – | – | –
